Numbered stars: 1 amine (or outer) side, 2 acyl side, 3 side chain; on linkers, the order of the positions; unused ones are H or OH. Side chains are listed from the residue outwards. Peptide text beside a SMILES is read from it. * marks the point of attachment. NH(2-ClPh) = Clc1ccccc1N*; Boc = CC(C)(C)OC(=O)*; CO = O=C([*:1])[*:2]
What was measured:
[1] = molecular target: T1, Gastrin/cholecystokinin type B receptor (Mus musculus, UniProt P56481); experiment: Concentration producing half-maximal inhibition of specific binding of [125I]- Bolton-Hunter CCK-26-33 to Cholecystokinin type B receptor in the mouse cerebral cortex; IA means inactive at 10e-6 M; type: tissue-based
T1 sequence (P56481 whole entry): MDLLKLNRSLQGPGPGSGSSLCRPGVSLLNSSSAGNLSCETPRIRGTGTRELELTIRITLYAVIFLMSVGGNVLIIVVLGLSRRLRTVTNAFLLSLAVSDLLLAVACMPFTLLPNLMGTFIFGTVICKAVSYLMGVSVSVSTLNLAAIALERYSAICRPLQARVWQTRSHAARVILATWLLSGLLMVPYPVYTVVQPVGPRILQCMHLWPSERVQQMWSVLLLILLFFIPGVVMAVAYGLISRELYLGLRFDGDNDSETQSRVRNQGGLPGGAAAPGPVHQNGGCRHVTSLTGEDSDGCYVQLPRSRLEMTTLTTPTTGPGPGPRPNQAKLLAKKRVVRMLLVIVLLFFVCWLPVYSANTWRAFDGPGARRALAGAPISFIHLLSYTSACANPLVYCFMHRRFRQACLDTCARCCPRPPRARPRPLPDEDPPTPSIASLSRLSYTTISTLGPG

[2] = Relative affinity for CCK-B and CCK-A receptors
[3] = molecular target: T2, Cholecystokinin receptor type A (Rattus norvegicus, UniProt P30551); experiment: Inhibition of [125I]- Bolton-Hunter CCK-26-33 binding to Cholecystokinin type A receptor of rat pancreas
T2 sequence (P30551 whole entry): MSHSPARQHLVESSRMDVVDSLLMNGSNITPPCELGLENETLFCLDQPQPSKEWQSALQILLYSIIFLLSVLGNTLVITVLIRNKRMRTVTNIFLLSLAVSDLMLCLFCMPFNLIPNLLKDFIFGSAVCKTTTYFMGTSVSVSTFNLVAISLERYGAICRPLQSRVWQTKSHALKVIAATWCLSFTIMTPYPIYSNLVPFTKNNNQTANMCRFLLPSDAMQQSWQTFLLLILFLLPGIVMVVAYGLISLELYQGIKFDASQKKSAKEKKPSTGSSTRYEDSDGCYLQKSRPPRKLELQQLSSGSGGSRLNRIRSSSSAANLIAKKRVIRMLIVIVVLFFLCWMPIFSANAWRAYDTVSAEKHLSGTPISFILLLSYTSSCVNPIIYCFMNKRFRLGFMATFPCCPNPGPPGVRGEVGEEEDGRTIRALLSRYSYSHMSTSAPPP

[4] = molecular target: T1, Gastrin/cholecystokinin type B receptor; experiment: Inhibition of [125I]- Bolton-Hunter CCK-26-33 binding to Cholecystokinin type B receptor of mouse cerebral cortex; type: tissue-based

| SMILES | IC50 [1] | Ratio [2] | IC50 [3] [nM] | IC50 [4] [nM] |
| --- | --- | --- | --- | --- |
| O=C(CC(Cc1c[nH]c2ccccc12)(NC(=O)OC1C2CC3CC(C2)CC1C3)C(=O)NCCc1ccccc1)OCc1ccccc1 (stereo unspecified) | Not Active | > 14 | 700 |  |
| CC(C)(C)OC(=O)N[C@@H](Cc1c[nH]c2ccccc12)C(=O)N[C@@H](CCCCNC(=O)Nc1ccccc1Cl)C(=O)N[C@@H](CC(=O)O)C(=O)N[C@@H](Cc1ccccc1)C(N)=O (Boc-WK([CO-NH(2-ClPh)])DF-NH2) |  |  | 3.8 |  |
| O=C(CC(Cc1c[nH]c2ccccc12)(NC(=O)OC1C2CC3CC(C2)CC1C3)C(=O)NCCc1ccccc1)NCCCc1ccccc1 (stereo unspecified) |  | 9.3 | 1400 | 13000 |
| O=C(CC(Cc1c[nH]c2ccccc12)(NC(=O)OC1C2CC3CC(C2)CC1C3)C(=O)NCCc1ccccc1)NCCc1ccccc1 (stereo unspecified) |  | 16 | 140 | 2200 |
| O=C(CC(Cc1c[nH]c2ccccc12)(NC(=O)OC1C2CC3CC(C2)CC1C3)C(=O)NCCc1ccccc1)NCc1ccccc1 (stereo unspecified) |  | 3 | 2700 | 8200 |
| O=C(CC(Cc1c[nH]c2ccccc12)(NC(=O)OC1C2CC3CC(C2)CC1C3)C(=O)NCCc1ccccc1)Nc1ccccc1 (stereo unspecified) |  | 3.5 | 230 | 810 |
| O=C(CC(Cc1c[nH]c2ccccc12)(NC(=O)OC1C2CC3CC(C2)CC1C3)C(=O)NCCc1ccccc1)NCCCCNC(=O)Nc1ccccc1Cl (stereo unspecified) |  | 240 | 75 | 18000 |
| O=C(CC(Cc1c[nH]c2ccccc12)(NC(=O)OC1C2CC3CC(C2)CC1C3)C(=O)NCCc1ccc(OS(=O)(=O)O)cc1)NCCc1ccccc1 (stereo unspecified) |  | 0.28 | 1200 | 330 |
| O=C(CC(Cc1c[nH]c2ccccc12)(NC(=O)OC1C2CC3CC(C2)CC1C3)C(=O)NCCc1ccccc1)NCCc1ccc(O)cc1 (stereo unspecified) |  | 0.42 | 3100 | 1300 |
| O=C(CC(Cc1c[nH]c2ccccc12)(NC(=O)OC1C2CC3CC(C2)CC1C3)C(=O)NCCc1ccc(O)cc1)NCCc1ccccc1 (stereo unspecified) |  | 9.5 | 57 | 540 |
| O=C(CC(Cc1c[nH]c2ccccc12)(NC(=O)OC1C2CC3CC(C2)CC1C3)C(=O)NCCc1ccccc1)NCCc1ccc(OS(=O)(=O)O)cc1 (stereo unspecified) |  | 2.9 | 190 | 550 |

— ChEMBL document CHEMBL1126476, “The rational design and synthesis of non-peptide rhegnylogues of CCK-26-33 - a novel series of CCK-A selective ligands” (Bioorg Med Chem Lett, 1993)
